pIC50: −log10 of the molar value. Activity calls are given as the source filed them. No cut-off for these calls is given here.
Experiments:
HepG2 [1] = assay: Cytotoxicity against human HepG2 cells assessed as inhibition of cell proliferation at 10 uM by MTT assay relative to control; format: functional
U-87 MG [2] = assay: Cytotoxicity against human U87MG cells assessed as inhibition of cell proliferation at 10 uM by MTT assay relative to control; format: functional, U-87MG ATCC
SK-OV-3 [3] = assay: Cytotoxicity against human SKOV3 cells assessed as inhibition of cell proliferation at 10 uM by MTT assay relative to control; format: functional
PC-3 [4] = assay: Cytotoxicity against human PC3 cells assessed as inhibition of cell proliferation at 10 uM by MTT assay relative to control; format: functional
HCT-116 [5] = assay: Cytotoxicity against human HCT116 cells assessed as inhibition of cell proliferation at 10 uM by MTT assay relative to control; format: functional
HepG2 [6] = assay: Cytotoxicity against human HepG2 cells assessed as inhibition of cell proliferation by MTT assay; format: functional, cell-based
HCT-116 [7] = assay: Cytotoxicity against human HCT116 cells assessed as inhibition of cell proliferation by MTT assay; format: functional, cell-based
PC-3 [8] = assay: Cytotoxicity against human PC3 cells assessed as inhibition of cell proliferation by MTT assay; format: functional, cell-based
[9] = molecular target: T1, DNA topoisomerase 1 (Homo sapiens) (UniProt P11387); assay: Inhibition of recombinant human DNA topoisomerase-1 assessed as relaxation of supercoiled pBR322 DNA at 50 uM after 30 mins by agarose gel electrophoresis
T1 sequence (whole entry): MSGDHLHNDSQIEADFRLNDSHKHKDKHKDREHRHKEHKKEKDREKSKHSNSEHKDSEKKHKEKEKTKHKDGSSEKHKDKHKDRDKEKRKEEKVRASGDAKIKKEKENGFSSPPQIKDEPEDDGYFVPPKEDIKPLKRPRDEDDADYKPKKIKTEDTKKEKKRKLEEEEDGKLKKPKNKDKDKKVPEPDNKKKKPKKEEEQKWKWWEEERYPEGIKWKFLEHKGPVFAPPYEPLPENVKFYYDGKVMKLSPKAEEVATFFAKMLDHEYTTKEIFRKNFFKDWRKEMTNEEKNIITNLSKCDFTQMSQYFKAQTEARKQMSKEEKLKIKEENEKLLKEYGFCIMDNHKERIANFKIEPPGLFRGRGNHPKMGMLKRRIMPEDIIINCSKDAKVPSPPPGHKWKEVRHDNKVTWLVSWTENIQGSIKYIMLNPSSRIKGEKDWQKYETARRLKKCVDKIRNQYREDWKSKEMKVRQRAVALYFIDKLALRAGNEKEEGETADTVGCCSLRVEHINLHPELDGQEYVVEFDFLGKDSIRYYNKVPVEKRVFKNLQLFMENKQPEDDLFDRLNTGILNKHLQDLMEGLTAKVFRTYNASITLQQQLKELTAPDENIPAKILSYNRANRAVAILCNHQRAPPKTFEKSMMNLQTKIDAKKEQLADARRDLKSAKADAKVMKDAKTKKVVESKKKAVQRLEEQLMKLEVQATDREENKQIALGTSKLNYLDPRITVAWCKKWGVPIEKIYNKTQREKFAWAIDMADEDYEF

SK-OV-3 [10] = assay: Cytotoxicity against human SKOV3 cells assessed as inhibition of cell proliferation by MTT assay; format: functional, cell-based
U-87 MG [11] = assay: Cytotoxicity against human U87MG cells assessed as inhibition of cell proliferation by MTT assay; format: functional, cell-based, U-87MG ATCC

Row | SMILES | inhibition at 10 µM (HepG2 [1]) | inhibition at 10 µM (U-87 MG [2]) | inhibition at 10 µM (SK-OV-3 [3]) | inhibition at 10 µM (PC-3 [4]) | inhibition at 10 µM (HCT-116 [5]) | pIC50 (HepG2 [6]) | pIC50 (HCT-116 [7]) | pIC50 (PC-3 [8]) | inhibition [9] | pIC50 (SK-OV-3 [10]) | pIC50 (U-87 MG [11])
1 | Cc1ccc2nc3c(nc2c1)C(=O)c1ccccc1-3 | 6.44% | -13.9% | 11.2% | -8.92% | 6.32% |  |  |  |  |  | 
2 | O=C1c2ccccc2-c2nc3cc(F)ccc3nc21 | 50.5% | -13.2% | 9.6% | 2.65% | 22.7% |  |  |  |  |  | 
3 | CCOC(=O)C1c2c(O)cccc2-n2c(=O)c3ccccc3c(=O)n21 (stereo not given) | 11.2% | 1.9% | -3.97% | 4.9% | 0.4% |  |  |  |  |  | 
4 | COc1ccc2nc3c(nc2c1)C(=O)c1ccccc1-3 | 14.7% | -14.4% | 8.07% | -4.44% | 8.68% |  |  |  |  |  | 
5 | O=C1c2ccccc2-c2nc3ccccc3nc21 | 53.2% | -14.5% | 10.1% | -8.39% | -1.83% |  |  |  |  |  | 
6 | COc1ccc2nc3c(nc2c1)-c1ccccc1C3=O | 6.56% | -7.74% | -7.19% | -1.15% | 16.9% |  |  |  |  |  | 
7 | CN(C)CCNC(=O)C1c2c(O)cccc2-n2c(=O)c3ccccc3c(=O)n21 (stereo not given) | -2.82% | 1.1% | -1.46% | 4% | -4.2% |  |  |  |  |  | 
8 | CN(C)CCCNC(=O)C1c2c(ccc(Br)c2O)-n2c(=O)c3ccccc3c(=O)n21 (stereo not given) | -7.99% | -2.5% | -4.1% | 6.4% | -5.7% |  |  |  |  |  | 
9 | O=C(NCCO)C1c2c(O)cccc2-n2c(=O)c3ccccc3c(=O)n21 (stereo not given) | -0.87% | -0.6% | -7.14% | 5% | -0.6% |  |  |  |  |  | 
10 | O=C1c2ccccc2-c2nc3ncccc3nc21 | 15.2% | -23.3% | 2.89% | 36.2% | 1.49% |  |  |  |  |  | 
11 | O=C1c2ccccc2-c2nc3cccnc3nc21 | 55.4% | 20.8% | 13.2% | 52.7% | 71.9% | 4.47 | 4.35 | 5.36 |  |  | 
12 | O=C(NCCCO)C1c2c(O)cccc2-n2c(=O)c3ccccc3c(=O)n21 (stereo not given) | -3.15% | 2.4% | -5.15% | 7.6% | -3.8% |  |  |  |  |  | 
13 | O=C1c2ccccc2-c2nc3cc(C(F)(F)F)ccc3nc21 | 42.9% | -7.67% | -0.82% | -1.15% | 12.2% |  |  |  |  |  | 
14 | COc1ccc2[nH]c3c(c2c1)C(=O)c1ccccc1C3=O | 26.6% | 49% | 57.6% | 8.56% | 76.2% |  |  |  |  |  | 
15 | O=C1c2ccccc2-c2nc3ccc(C(F)(F)F)cc3nc21 | 43.8% | -15.6% | 14.2% | 15.9% | 17.2% |  |  |  |  |  | 
16 | CCOC(=O)C1c2c(ccc(Br)c2O)-n2c(=O)c3ccccc3c(=O)n21 (stereo not given) | 2.54% | 4.1% | -3.43% | 0.8% | 3.3% |  |  |  |  |  | 
17 | CCOC(=O)C1C2=C(CCCC2=O)n2c(=O)c3ccccc3c(=O)n21 (stereo not given) | 12% | 1.5% | -4.89% | 11.1% | 3.5% |  |  |  |  |  | 
18 | CN(C)CCCn1c2c(c3c4ccccc4c(O)cc31)C(=O)c1ccccc1C2=O | 88% | 86% | 77.4% | 59.6% | 91.2% | 5.70 | 6.00 | 6.21 | Active | 6.11 | 6.49
19 | CN(C)CCn1c2c(c3c4ccccc4c(O)cc31)C(=O)c1ccccc1C2=O | 88.2% | 78.8% | 82.4% | 66.5% | 92% | 6.07 | 6.15 | 6.41 | Active | 6.00 | 6.77
20 | O=C(NCCCO)C1c2c(ccc(Br)c2O)-n2c(=O)c3ccccc3c(=O)n21 (stereo not given) | -8.92% | -4.7% | -4.25% | 5.3% | 5.4% |  |  |  |  |  | 
21 | CN(C)CCCNC(=O)C1c2c(O)cccc2-n2c(=O)c3ccccc3c(=O)n21 (stereo not given) | -8.92% | -4.7% | -4.01% | 11.1% | -4.5% |  |  |  |  |  | 
22 | O=C1c2ccccc2-c2nc3cc4ccccc4cc3nc21 | 2.82% | -11.5% | -8.16% | 11.8% | 7.32% |  |  |  |  |  | 
23 | O=C(NCCO)C1c2c(ccc(Br)c2O)-n2c(=O)c3ccccc3c(=O)n21 (stereo not given) | 15.1% | 0.4% | -4.34% | 6.5% | 3.7% |  |  |  |  |  | 
24 | CN(C)CCNC(=O)C1c2c(ccc(Br)c2O)-n2c(=O)c3ccccc3c(=O)n21 (stereo not given) | 3.89% | 0.1% | -6.16% | 14.3% | -5.8% |  |  |  |  |  | 

— ChEMBL document CHEMBL3621186, “Design, synthesis and antitumor activity of non-camptothecin topoisomerase I inhibitors” (Bioorg Med Chem Lett, 2015)
